The source of these data is article PMC8949375, “Design, Green Synthesis and Tailoring of Vitamin E TPGS Augmented Niosomal Nano-Carrier of Pyrazolopyrimidines as Potential Anti-Liver and Breast Cancer Agents with Accentuated Oral Bioavailability” (Pharmaceuticals, 2022).

In series [1] the test system is VEGF gene expression level in HepG2 cell line. In words: Real-time PCR of VEGF gene expression, HepG2. It is filed as cell-based, human. The conditions noted are these: HepG2, 3 days of treatment, compared to control, in words. On the procedure:
RT-PCR was applied to evaluate the VEGF gene expression level. Briefly, total RNA was extracted, and the extracted total RNA concentration was determined using a NanoDrop 2000 spectrophotometer (Thermo Fisher, Waltham, MA, USA). To determine the relative expression levels, the 2^−ΔΔCT method was used. NCBI/Primer Blast was used to define the primer sequences. The experiments were performed in quadruplicate. The primer sequences of VEGF and β-actin genes are listed below: […]
For orientation: In qPCR the cycle at which signal appears reflects the starting amount.

Series [2] has as its system VEGF protein expression level in HepG2 cell line. In words: VEGF ELISA in HepG2 cell culture supernatant. It is filed as cell-based, human. Also noted: concentration or dose not given beside the values. The conditions noted are these: compared to control. On the procedure: (§1) Total protein was assayed using the method described by Bradford. The VEGF ELISA Assay Kit (VEGF) and ELISA Kit, (#VGF31-[…]) were purchased from (Eagle Biosciences CO., LTD, Amherst, NH, USA). The kit is a sandwich enzyme immunoassay for the in vitro quantitative determination of VEGF concentrations in cell culture supernates, serum and plasma according to the manufacturer's instructions.
Background: In an ELISA, binding on a coated surface is turned into a signal by an enzyme label.

For series [3], the system named is VEGFR-2 protein expression level in MCF-7 cell line. Briefly: Human VEGF receptor-2 ELISA in MCF-7. The format is cell-based. Also noted: concentration or dose not given beside the values. Particulars: MCF-7, ELISA, compared to control. On the procedure:
(§2) Total protein was assayed using the method described by Bradford. The Human VEGF receptor-2 ELISA Kit (ab213476), (96 tests) was purchased from (abcam®, Waltham, MA, USA). The kit is a sandwich enzyme immunoassay for the in vitro quantitative measurement of human VEGFR-2 in tissue homogenates, cell lysates and other biological fluids according to the manufacturer’s instructions.

The subject of series [4] is VEGF protein expression level in MCF-7 cell line. In words: VEGF ELISA in MCF-7 cell culture supernatant. The conditions noted are these: MCF-7, ELISA, compared to control. Also noted: concentration or dose not given beside the values. The format is cell-based, human. On the procedure: as §1
The subject of series [5] is HepG2 cell line. Briefly: MTT cytotoxicity assay, HepG2. It is filed as cell-based. Particulars: Homo sapiens. The source says: (§3) The human HCC cell line, HEPG-2, was obtained from the American Type Culture Collection and used to evaluate the effects of the following drugs. MCF-7(ATCC® HTB-22TM, Manassas, VA, USA) breast cancer cells were derived from mammary gland or breast at a metastatic site. […] The human Caco-2 cell line, Caco-2, was obtained from the American Type Culture Collection and used to evaluate the effects of the following drugs. […], Manassas, VA, USA), epithelial-like lung carcinoma, was derived from lung tissue at a metastatic site. The human A549 cell line, A549, was obtained from the American Type Culture Collection and used to evaluate the effects of the following drugs. […] LLC., Burlington, VT, USA). Penicillin/streptomycin (Gibco®, Grand Island, NY, USA) was applied at 100 units/mL and 100 μg/mL, respectively. Growth inhibition was determined by classic MTT assay. In brief, HEPG2, A549, MCF-7 and Caco-2 cells were added to a cell culture MTT assay plate at a concentration of 5 × 10^3 cells/well in 1640 medium and cultured overnight. The different treatments were added on day 1 according to the calculated doses except on the control well and standard, then incubated for 24 h.
Background: Tetrazolium assays rely on reduction of a dye to a coloured formazan, in cell work by metabolically active cells.

In series [6] the test system is VEGFR-2 protein expression level in HepG2 cell line. Briefly: Human VEGF receptor-2 ELISA in HepG2. The format is cell-based. Also noted: concentration or dose not given beside the values. The conditions noted are these: compared to control. The procedure: as §2
For series [7], the system named is MCF-7 cell line. Briefly: MTT cytotoxicity assay, MCF-7. The conditions noted are these: Homo sapiens, MCF7, read-out: IC50 MCF-7 Breast Cancer. It is filed as cell-based.
Source text: as §3

Series [8] deals with A-549 cell line. Briefly: MTT cytotoxicity assay, A-549. Particulars: Homo sapiens, A549, read-out: IC50 A-549 Lung Carcinoma. It is filed as cell-based. The source says: (§4) • HepG2 [HEPG2] (ATCC® HB-8065™, Manassas, VA, USA) epithelial hepatocellular carcinoma was derived from the liver tissue of a person (a well-differentiated hepatocellular carcinoma). The human HCC cell line, HEPG-2, was obtained from the American Type Culture Collection and used to evaluate the effects of the following drugs. MCF-7(ATCC® HTB-22™, Manassas, VA, USA) breast cancer cells were derived from mammary gland or breast at a metastatic site. The human MCF-7 cell line, MCF-7, was obtained from the American Type Culture Collection and used to evaluate the effects of the following drugs. • Caco 2 [Caco2] (ATCC® HTB 37™, Manassas, VA, USA) epithelial colorectal adenocarcinoma was derived from the colon at a metastatic site. The human Caco-2 cell line, Caco-2, was obtained from the American Type Culture Collection and used to evaluate the effects of the following drugs. A549 (ATCC® CCL-185™, Manassas, VA, USA), epithelial-like lung carcinoma, was derived from lung tissue at a metastatic site. The human A549 cell line, A549, was obtained from the American Type Culture Collection and used to evaluate the effects of the following drugs.
(§5) HEPG2, A549, MCF-7 and Caco-2 cells were maintained in a monolayer culture in a T-25 flask at 5% CO2 and 37 °C in DMEM (Lonza, Verviers, Belgium) and supplemented with 10% (v/v) FBS (Sigma-Aldrich Co. LLC., Burlington, VT, USA). Penicillin/streptomycin (Gibco®, Grand Island, NY, USA) was applied at 100 units/mL and 100 µg/mL, respectively.
(§6) Growth inhibition was determined by classic MTT assay. In brief, HEPG2, A549, MCF-7 and Caco-2 cells were added to a cell culture MTT assay plate at a concentration of 5 × 10^3 cells/well in 1640 medium and cultured overnight. The different treatments were added on day 1 according to the calculated doses except on the control well and standard, then incubated for 24 h. Measurement was achieved using a microplate reader (Model 550, Bio-Rad, Hercules, CA, USA).

The test system of series [9] is CaCo-2 cell line. Briefly: MTT cytotoxicity assay, CaCo-2. It is filed as cell-based. The conditions noted are these: Homo sapiens, read-out: IC50 CaCo-2 Colon Cancer.
Source text: as §4, §5, §6

Series [10] deals with HepG2, MCF-7, A-549 and CaCo-2 cell lines. In words: MTT cytotoxicity assay, summary over all tested cell lines. The format is cell-based, human. The conditions noted are these: Homo sapiens; range over compounds and cell lines; read-out: IC50 values versus all tested cell lines (collective range).
Source text: as §4, §5, §6

Setting [11] is: read-out: IC50 HepG2 Livercarcinoma.

One may read the IC50 as the midpoint of a concentration-inhibition curve. What is called melting point is the temperature, or range, at which the solid turns liquid.

Read-outs that look alike come from different tables or passages of the source.

`Cc1ccc(N=Nc2c(N)nn3c(C)c(N=Nc4cccc([N+](=O)[O-])c4)c(=O)[nH]c23)cc1` [Compound 4b, 2-Amino-7-methyl-6-((3-nitrophenyl)diazenyl)-3-(4-tolyldiazenyl)pyrazolo[1,5-a]pyrimidin-5(4H)-one]: the melting point lay within 228 to 230 °C. In series [1], the “VEGF gene expression level” value was “great inhibition”. Further, in series [2], the “VEGF 24 h % Inhibition” value is reported as 46% and the “VEGF 72 h % Inhibition” value is reported as 41.7%. Also, in series [3], the “VEGFR-2 24 h % Inhibition” value is reported as 50% and the “VEGFR-2 72 h % Inhibition” value worked out at 50%. Moreover, in series [4], the “VEGF 24 h % Inhibition” value worked out at 40% and the “VEGF 72 h % Inhibition” value is recorded as 50%. In series [5] (setting [11]), the IC50 came out at 12.5 µM. Moreover, in series [6], the “VEGFR-2 24 h % Inhibition” value stood at 42% and the “VEGFR-2 72 h % Inhibition” value is recorded as 38.5%. Besides, the IC50 in [7] was 25 µM. Besides, the IC50 in series [8] was 14 µM. In addition, in series [9], the IC50 is 15.4 µM. Besides, the IC50 in series [10] lay in the range of 6 to 50 µM.
`Cc1ccc(N=Nc2c(N)nn3c(N)c(N=Nc4ccc(S(=O)(=O)N=C(N)N)cc4)c(N)nc23)cc1` [Compound 7, N-(Diaminomethylene)-4-((2,5,7-Triamino-3-(4-Tolyldiazenyl)Pyrazolo[1,5-a]Pyrimidin-6-yl)Diazenyl)Benzenesulfonamide] showed a melting point of 264 to 266 °C. Further, the “VEGF gene expression level” value in series [1] is “best VEGF gene expression level downregulation”. In addition, in [2], the “VEGF 24 h % Inhibition” value is given as 51.5% and the “VEGF 72 h % Inhibition” value was found to be 70.3%. In addition, in [3], the “VEGFR-2 24 h % Inhibition” value is listed as 60% and the “VEGFR-2 72 h % Inhibition” value came out at 62.5%. In series [4], the “VEGF 24 h % Inhibition” value is recorded as 50% and the “VEGF 72 h % Inhibition” value was 62.5%. The IC50 in series [5] (TPGS-coated vs uncoated niosomes vs pure compound, read-out: IC50 Hepg2 Liver Carcinoma) stood at 6 µM. In addition, the IC50 in [5] (setting [11]) worked out at 6 µM. Further, in [6], the “VEGFR-2 24 h % Inhibition” value is recorded as 69.7% and the “VEGFR-2 72 h % Inhibition” value was 72.3%. Besides, in [7], the IC50 was 12 µM. Moreover, in series [8], the IC50 was determined as 12 µM. For the same compound, in [9], the IC50 was 6 µM. Moreover, the IC50 in series [10] was 6 to 50 µM.
